Assay results reported in ChEMBL document CHEMBL1145677, “In Vitro Action of ent -Manoyl Oxides against Leishmania donovani” (1997).

Legend:
Format in all cases: functional
[1] = system: Leishmania donovani; assay: Antileishmanial activity against Leishmania donovani LCR-L133 promastigotes at 10 […] after 72 hrs relative to control
[2] = system: Leishmania donovani; assay: Antileishmanial activity against Leishmania donovani LCR-L133 amastigotes at 10 ug/ml after 24 hrs relative to control
[3] = system: Leishmania donovani; assay: Antileishmanial activity against Leishmania donovani LCR-L133 amastigotes at 100 ug/ml after 24 hrs relative to control
[4] = system: Leishmania donovani; assay: Antileishmanial activity against Leishmania donovani LCR-L133 promastigotes at 1 […] after 48 hrs relative to control
[5] = system: Leishmania donovani; assay: Antileishmanial activity against Leishmania donovani LCR-L133 promastigotes at 100 […] after 24 hrs relative to control
[6] = system: Leishmania donovani; assay: Antileishmanial activity against Leishmania donovani LCR-L133 promastigotes at 100 […] after 72 hrs relative to control
[7] = system: Leishmania donovani; assay: Antileishmanial activity against Leishmania donovani LCR-L133 amastigotes at 10 ug/ml after 48 hrs relative to control
[8] = system: Leishmania donovani; assay: Antileishmanial activity against Leishmania donovani LCR-L133 amastigotes at 1 ug/ml after 72 hrs relative to control
[9] = system: Leishmania donovani; assay: Antileishmanial activity against Leishmania donovani LCR-L133 amastigotes at 100 ug/ml after 48 hrs relative to control
[10] = system: Leishmania donovani; assay: Antileishmanial activity against Leishmania donovani LCR-L133 promastigotes at 1 […] after 72 hrs relative to control
[11] = system: Leishmania donovani; assay: Antileishmanial activity against Leishmania donovani LCR-L133 promastigotes at 1 […] after 24 hrs relative to control
[12] = system: Leishmania donovani; assay: Antileishmanial activity against Leishmania donovani LCR-L133 amastigotes at 1 ug/ml after 48 hrs relative to control
[13] = system: Leishmania donovani; assay: Antileishmanial activity against Leishmania donovani LCR-L133 amastigotes at 100 ug/ml after 72 hrs relative to control
[14] = system: Leishmania donovani; assay: Antileishmanial activity against Leishmania donovani LCR-L133 amastigotes at 10 ug/ml after 72 hrs relative to control
[15] = system: Leishmania donovani; assay: Antileishmanial activity against Leishmania donovani LCR-L133 promastigotes at 100 […] after 48 hrs relative to control
[16] = system: Leishmania donovani; assay: Antileishmanial activity against Leishmania donovani LCR-L133 promastigotes at 10 […] after 48 hrs relative to control
[17] = system: Leishmania donovani; assay: Antileishmanial activity against Leishmania donovani LCR-L133 promastigotes at 10 […] after 24 hrs relative to control
[18] = system: Leishmania donovani; assay: Antileishmanial activity against Leishmania donovani LCR-L133 amastigotes at 1 ug/ml after 24 hrs relative to control

| Molecule | Activity [1] [%] | Activity [2] [%] | Activity [3] [%] | Activity [4] [%] | Activity [5] [%] | Activity [6] [%] | Activity [7] [%] | Activity [8] [%] | Activity [9] [%] | Activity [10] [%] | Activity [11] [%] | Activity [12] [%] | Activity [13] [%] | Activity [14] [%] | Activity [15] [%] | Activity [16] [%] | Activity [17] [%] | Activity [18] [%] |
| --- | --- | --- | --- | --- | --- | --- | --- | --- | --- | --- | --- | --- | --- | --- | --- | --- | --- | --- |
| C=C[C@]1(C)O[C@@]2(C)CC[C@@H]3C(C)(C)C(=O)CC[C@@]3(C)[C@@H]2CC1=O | 0 | 0 | 22 | 0 | 0 | 0 | 7 | 0 | 31 | 0 | 0 | 0 | 36 | 11 | 25 | 0 | 0 | 0 |
| C=C[C@@]1(C)CC[C@H]2[C@]3(C)CCC(=O)C(C)(C)[C@H]3CC[C@]2(C)O1 | 0 | 7 | 20 | 0 | 51 | 80 | 17 | 10 | 48 | 0 | 0 | 10 | 56 | 25 | 86 | 0 | 0 | 0 |
| C=C[C@]1(C)O[C@@]2(C)CC[C@@H]3C(C)(C)[C@@H](OC(C)=O)CC[C@@]3(C)C2=CC1=O | 0 | 12 | 32 | 0 | 100 | 100 | 21 | 12 | 45 | 0 | 0 | 0 | 50 | 34 | 100 | 0 | 0 | 0 |
| C=C[C@]1(C)O[C@@]2(C)C[C@H](O)[C@@H]3C(C)(C)[C@H](O)CC[C@@]3(C)[C@@H]2C[C@@H]1O | 0 | 7 | 35 | 0 | 0 | 0 | 11 | 0 | 46 | 0 | 0 | 0 | 50 | 16 | 0 | 0 | 0 | 0 |
| C=C[C@]1(C)O[C@@]2(C)CC[C@@H]3C(C)(C)[C@H](O)CC[C@@]3(C)[C@@H]2C[C@@H]1O | 0 | 0 | 15 | 0 | 0 | 0 | 6 | 0 | 31 | 0 | 0 | 0 | 35 | 11 | 31 | 0 | 0 | 0 |
| C=C[C@]1(CO)CC[C@H]2[C@]3(C)CCC(=O)[C@](C)(C(=O)OC)[C@H]3CC[C@]2(C)O1 | 0 | 0 | 9 | 0 | 0 | 34 | 0 | 0 | 14 | 0 | 0 | 0 | 19 | 0 | 22 | 0 | 0 | 0 |
| C=C[C@]1(C)O[C@@]2(C)CC[C@@H]3C(C)(C)[C@H](O)CC[C@@]3(C)[C@@H]2C[C@H]1O [VARODIOL] | 0 | 0 | 12 | 0 | 0 | 0 | 7 | 0 | 29 | 0 | 0 | 0 | 33 | 12 | 63 | 0 | 0 | 0 |
| C=C[C@@]1(C)CC[C@H]2[C@]3(C)CC[C@@H](O)C(C)(C)[C@H]3[C@@H](O)C[C@]2(C)O1 | 0 | 10 | 34 | 0 | 0 | 0 | 24 | 14 | 51 | 0 | 0 | 0 | 67 | 33 | 52 | 0 | 0 | 0 |
| C=C[C@@]1(C)CC[C@H]2[C@]3(C)CC[C@@H](O)C(C)(C)[C@H]3CC[C@]2(C)O1 | 0 | 0 | 17 | 0 | 27 | 52 | 13 | 0 | 25 | 0 | 0 | 7 | 39 | 18 | 70 | 0 | 0 | 0 |
| MEGLUMINE ANTIMONATE | 42 | – | – | 20 | 70 | 76 | – | – | – | 39 | 4 | – | – | – | 74 | 40 | 28 | – |
| C=C[C@]1(C)O[C@@]2(C)C[C@H](O)[C@@H]3C(C)(C)[C@H](O)CC[C@@]3(C)[C@@H]2CC1=O | 0 | 0 | 14 | 0 | 0 | 0 | 0 | 0 | 15 | 0 | 0 | 0 | 19 | 0 | 0 | 0 | 0 | 0 |
| C=C[C@@]1(CO)CC[C@H]2[C@]3(C)CCC[C@](C)(C(=O)OC)[C@H]3CC[C@]2(C)O1 | 0 | 17 | 47 | 0 | 0 | 79 | 26 | 13 | 58 | 0 | 0 | 12 | 67 | 35 | 62 | 0 | 0 | 0 |
